# Measured values reported in publication PMC5472784, “Pyrazinamide and derivatives block ethylene biosynthesis by inhibiting ACC oxidase” (Nature Communications, 2017).
# Assays:
# AtACO2 = AtACO2 (Arabidopsis thaliana, UniProt Q41931); test: ACO enzymatic activity assay and kinetic analysis (ethylene by GC-FID); assay type: biochemical; conditions: even at a high concentration (2 mM)
# [1] = tested on: Arabidopsis etiolated seedlings (Col-0, eto1-2, ctr1-1, ein2-5); test: Ethylene response phenotype of 3-day-old etiolated seedlings (hypocotyl and root length, root hairs, root cells); assay type: in vivo, Arabidopsis thaliana
# [2] = tested on: ethylene production of Arabidopsis seedlings; test: Measurement of ethylene production of seedlings (GC-FID); assay type: in vivo, Arabidopsis thaliana; conditions: etiolated and green seedlings, 50 μM
# Experimental: Ethylene production was determined as follows: 30 3-day-old etiolated or 5-day-old green seedlings of Col-0, eto1-2 or other mutants were selected randomly and sealed in a 30 ml vial containing 3 ml liquid MS medium supplemented with indicated treatments. The vial was sealed with a rubber stopper for 24 h at 22 °C prior to ethylene sampling. A 250 μl sample of the headspace gas was withdrawn using a gas-tight syringe from each chamber through the septum stopper, and injected into a gas chromatograph (Agilent 6890NGC, Agilent Technologies, USA) that was equipped with a HP-PLOTQ column (40 m × 530 μm × 40 μm) and a flame ionization detector (FID)[44]. Separations were carried out at 60 °C using N2 as the carrier gas. The area of the ethylene peak was integrated with Agilent Chemstation and results were expressed as the average relative ethylene production (%) of each treatment.
# [3] = tested on: Arabidopsis PSB-D suspension cultured cells; test: Ethylene production of suspension cultured cells; assay type: cell-based, Arabidopsis thaliana
# [4] = tested on: ACC conjugating enzymes (ACC and M-ACC content of eto1-2 seedlings); test: Quantification of ACC and M-ACC; assay type: in vivo, Arabidopsis thaliana; conditions: 10-day-old green seedlings, 50 μM PZA
# Experimental: 10-day-old green seedlings of eto1-2 under different treatments were ground in liquid nitrogen, and extracted with 5% SSA (sulfosalicylic acid). For ACC measurement, the extract was oxidized with 2 mM HgCl2, 0.33% NaOCl and 0.2 M NaOH, reacted on ice for 4 min, and then the ethylene production was determined with GC-FID. For M-ACC measurement, the extract was hydrolyzed using 2 M HCl followed by oxidization and ethylene production determination, and the content of ACC and M-ACC were calculated based on the ethylene production and efficiency of oxidization.
# EIN3 = EIN3 protein level (Western blot) and pEBS:GUS staining; assay type: in vivo, Arabidopsis thaliana; conditions: 1 μM ACC, 50, 100 and 200 μM PZA
# [5] = tested on: Arabidopsis PSB-D suspension cultured cells; test: Wayne Test, conversion of PZA to POA in suspension cultured cells; assay type: cell-based, Arabidopsis thaliana; conditions: 500 μM PZA, 24 h, abolished in boiled cells
# Experimental: 500 μM PZA were added to 50 ml Arabidopsis suspension cell log phase cultures or boiled cultures and incubated at 27 °C for 24 h. 1 ml cell culture was collected after centrifugation, and 10 μl 2% ferrous sulfate was added to the supernatant for colour development. The absorbance at 450 nm of each samples was measured by spectrophotometer and the POA concentration was calculated according to the POA-Abs450 standard curve drawn using the reference solutions of POA.
# Arabidopsis suspension cells were cultured in liquid MS medium in the presence or absence of 500 μM PZA for 24 h. The culture supernatant was collected by centrifugation and alkalized (pH>11) using sodium hydroxide (NaOH), followed by extracting with ethyl acetate twice to eliminate lipid-soluble molecules. The aqueous phase was collected and acidified (pH<2) using hydrochloric acid (HCl). The protonated cultures were extracted with ethyl acetate five times to enrich POA. The resulting samples were concentrated by reduced pressure distillation and analysed using a Fourier Transform Ion Cyclotron Resonance Mass Spectrometer (Solarix XR, Bruker).
# AtNIC2 = biological target: T1, AtNIC2 (Arabidopsis thaliana, UniProt Q9FMX7); test: In vitro PZase assay (TLC, NMR); assay type: biochemical; conditions: 5 mM PZA, 12 h, 30 °C
# T1 sequence (Q9FMX7 1-198): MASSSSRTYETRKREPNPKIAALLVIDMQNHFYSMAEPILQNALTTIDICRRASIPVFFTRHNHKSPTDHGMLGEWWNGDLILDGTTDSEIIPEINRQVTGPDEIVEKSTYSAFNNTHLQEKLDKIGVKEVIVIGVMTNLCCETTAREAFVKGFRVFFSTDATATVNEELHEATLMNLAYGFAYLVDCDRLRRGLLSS
# Excerpt: (§1) Silica TLC plates were developed in dichloromethane/methanol (3:1), and analysed with ultraviolet.
# For NMR analysis, the AtNIC2-catalysed PZase reaction was acidified using HCl and extracted using ethyl acetate. The solvent was removed by reduced pressure distillation. The sample was then re-dissolved in dimethyl sulfoxide-d6 and analysed using Bruker-400 MHz NMR (ARX400, Bruker).
# AtNIC3 = biological target: T2, AtNIC3 (Arabidopsis thaliana, UniProt Q9FMX8); test: In vitro PZase assay (TLC); assay type: biochemical; conditions: 5 mM PZA, 12 h, 30 °C
# T2 sequence (Q9FMX8 1-198): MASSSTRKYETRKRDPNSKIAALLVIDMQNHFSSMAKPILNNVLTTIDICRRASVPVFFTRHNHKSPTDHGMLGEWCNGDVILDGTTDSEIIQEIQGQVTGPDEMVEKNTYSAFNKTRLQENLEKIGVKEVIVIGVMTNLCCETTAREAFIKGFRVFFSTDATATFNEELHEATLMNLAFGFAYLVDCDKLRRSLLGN
# Excerpt: as §1
# GA response = test: GA response, pRGA::GFP-RGA reporter seedlings; assay type: in vivo, Arabidopsis thaliana; conditions: pRGA::GFP-RGA seedlings, 20, 50, 100 μM PZA
# Experimental: (§2) GFP fluorescence and propidium iodide staining signals in roots were detected using Zeiss LSM-710 microscope. All seedlings were grown in the dark for 3 days on MS medium supplemented with the indicated treatments, and then mounted on glass slides and observed in water. For propidium iodide staining, roots were visualized in the presence of propidium iodide without fixation. ImageJ was used to process images and to quantify the fluorescent intensity of GFP.
# anthocyanin accumulation = test: Anthocyanin measurement; assay type: in vivo, Arabidopsis thaliana; conditions: 6-day-old Col-0 green seedlings
# Excerpt: 6-day-old green seedlings grown on MS medium supplemented with different concentration of PZA were sampled for anthocyanin measurement by spectrophotometry. The content of anthocyanin is presented as (A535−A650)/g.
# auxin response = test: Auxin response, pDR5::GFP reporter lines; assay type: in vivo, Arabidopsis thaliana; conditions: pDR5::GFP/Col-0 and pDR5::GFP/ein2-5
# Experimental: as §2
# AtACO2, sequence (Q41931 1-303): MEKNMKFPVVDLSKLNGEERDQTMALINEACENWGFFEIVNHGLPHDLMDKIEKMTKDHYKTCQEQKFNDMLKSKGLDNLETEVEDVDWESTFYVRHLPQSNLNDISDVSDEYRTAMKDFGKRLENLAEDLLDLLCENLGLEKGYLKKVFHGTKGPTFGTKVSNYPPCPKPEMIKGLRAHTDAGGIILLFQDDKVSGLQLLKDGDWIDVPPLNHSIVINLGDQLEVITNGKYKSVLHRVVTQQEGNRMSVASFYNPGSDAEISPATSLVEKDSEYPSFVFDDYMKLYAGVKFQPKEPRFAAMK
smiles,measurement,setting,value
"NC(=O)c1cnccn1 [PZA, pyrazinamide]",inhibition of the activity of AtACO2,AtACO2,no inhibition
same,cell elongation in the root maturation zone of eto1-2,[1]; 50 μM,promoted cell elongation
same,root hair formation of eto1-2,[1]; 50 μM,effectively suppressed
same,size of the cell division zone of eto1-2 root,[1]; 50 μM,little effect
same,short-root and short-hypocotyl phenotype of eto1-2,"[1]; 3-day-old etiolated eto1-2 seedlings, MS medium with compound (50 μM shown)",partially suppressed
same,phenotype of ethylene signalling mutants ctr1-1 and ein2-5,[1]; 3-day-old etiolated seedlings,little effect
same,ACC-induced short hypocotyl and root phenotype,"[1]; Col-0, 1 μM ACC, 50 or 100 μM PZA",significantly suppressed
same,ethylene-induced phenotype,"[1]; Col-0, 2 p.p.m. ethylene, 50 or 100 μM PZA",no effect
same,lengths of hypocotyls and roots of wild-type (Col-0),"[1]; etiolated seedlings, increasing doses (1-100 μM)",slightly promoted
same,ethylene production of eto1-2,[2],effectively inhibited
same,ethylene production in suspension cultured cells,[3],inhibited
same,ACC level in eto1-2,[4],slight increase
same,M-ACC level in eto1-2,[4],almost no change
same,ACC-induced EIN3 protein accumulation and transcriptional activation of target promoter,EIN3,inhibited
same,conversion into POA in PSB-D culture,[5],converted into POA
same,conversion of PZA into POA by AtNIC2,AtNIC2,able to convert PZA into POA
same,conversion of PZA into POA by AtNIC3,AtNIC3,able to convert PZA into POA
same,effect on GA response,GA response,virtually no effect
same,effect on anthocyanin accumulation,anthocyanin accumulation,virtually no effect
same,effect on auxin response,auxin response,EIN2-dependent manner
